Results: PubChem BioAssay AID308 (DTP/NCI, 2004)
Values joined by “and” are separate entries in the source; they are usually repeats but may differ in a detail not shown here. Equal values may be shown once. Inconclusive results and toxic doses are left out.

Tested on: BDF1 mice, L1210 6-MP/6-TG resistant leukemia ip, survival T/C
Assay: NCI In Vivo Anticancer Drug Screen. Data for tumor model L1210 Leukemia resistant to 6-MP and 6-Thioguanine; NSC 755, NSC 752 (intraperitoneal) in B6D2F1 (BDF1) mice
Conditions: endpoint: mean survival time, higher = longer survival
Procedure: The antitumor activity of compounds was measured in mice bearing transplantable tumors. Survival or tumor size were measured and the results are expressed as the measurement made in the treated group (T) divided by the measurement made in the vehicle treated control group (C). The tumor model used in this assay is L1210 Leukemia resistant to 6-MP and 6-Thioguanine; NSC 755, NSC 752 (intraperitoneal) in B6D2F1 (BDF1) mice

[1] = dose: 4.0 mg/kg/injection, schedule: Q01DX Z (ip), vehicle: carboxymethylcellulose (CMC)
[2] = dose: 12.0 mg/kg/injection, schedule: Q01DX Z (ip), vehicle: saline
[3] = dose: 50.0 mg/kg/injection, schedule: Q01DX Z (ip), vehicle: saline
[4] = dose: 100.0 mg/kg/injection, schedule: Q01DX Z (ip), vehicle: saline
[5] = dose: 150.0 mg/kg/injection, schedule: Q01DX Z (ip), vehicle: carboxymethylcellulose (CMC)
[6] = dose: 300.0 mg/kg/injection, schedule: Q01DX Z (ip), vehicle: carboxymethylcellulose (CMC)
[7] = dose: 400.0 mg/kg/injection, schedule: Q01DX001 (ip), vehicle: carboxymethylcellulose (CMC)

SMILES: Nc1ncnc2c1ncn2C(C=O)OC(C=O)CO (stereo not given)
- T/C [1]: 97 % of control
- T/C (dose: 6.0 mg/kg/injection, schedule: Q01DX Z (ip), vehicle: carboxymethylcellulose (CMC)): 102 % of control
- T/C (dose: 8.0 mg/kg/injection, schedule: Q01DX Z (ip), vehicle: carboxymethylcellulose (CMC)): 106 % of control
- T/C (dose: 12.0 mg/kg/injection, schedule: Q01DX015 (ip), vehicle: saline): 170 % of control
- T/C [2]: 124 % of control
- T/C (dose: 13.0 mg/kg/injection, schedule: Q01DX015 (ip), vehicle: saline): 171 % of control
- T/C (dose: 24.0 mg/kg/injection, schedule: Q01DX015 (ip), vehicle: saline): 189 % of control
- T/C (dose: 48.0 mg/kg/injection, schedule: Q01DX015 (ip), vehicle: saline): 111 % of control
- T/C [3]: 88 % of control

SMILES: CCCC(=O)OCC1OC(n2cnc3c(=S)nc[nH]c32)C(OC(=O)CCC)C1OC(=O)CCC (stereo not given)
- T/C (dose: 6.25 mg/kg/injection, schedule: Q01DX Z (ip), vehicle: other): 99 % of control
- T/C (dose: 12.5 mg/kg/injection, schedule: Q01DX Z (ip), vehicle: other): 92 % of control
- T/C (dose: 25.0 mg/kg/injection, schedule: Q01DX009 (ip), vehicle: Klucel (hydroxypropylcellulose) (HPC)): 92 % of control
- T/C (dose: 25.0 mg/kg/injection, schedule: Q01DX Z (ip), vehicle: other): 90 % of control and 92 % of control
- T/C (dose: 50.0 mg/kg/injection, schedule: Q01DX009 (ip), vehicle: Klucel (hydroxypropylcellulose) (HPC)): 98 % of control
- T/C (dose: 50.0 mg/kg/injection, schedule: Q01DX Z (ip), vehicle: other): 96 % of control
- T/C (dose: 100.0 mg/kg/injection, schedule: Q01DX009 (ip), vehicle: Klucel (hydroxypropylcellulose) (HPC)): 92 % of control
- T/C (dose: 100.0 mg/kg/injection, schedule: Q01DX Z (ip), vehicle: other): 90 % of control

SMILES: Clc1ccccc1CSc1ncnc2nc[nH]c12
- T/C (dose: 62.5 mg/kg/injection, schedule: Q01DX Z (ip), vehicle: other): 96 % of control
- T/C (dose: 125.0 mg/kg/injection, schedule: Q01DX Z (ip), vehicle: other): 92 % of control
- T/C (dose: 250.0 mg/kg/injection, schedule: Q01DX Z (ip), vehicle: other): 86 % of control

SMILES: O=c1[nH]cnc2n[nH]nc12
- T/C (dose: 278.0 mg/kg/injection, schedule: Q01DX009 (ip), vehicle: saline with Tween-80): 99 % of control
- T/C (dose: 423.0 mg/kg/injection, schedule: Q01DX009 (ip), vehicle: Klucel (hydroxypropylcellulose) (HPC)): 96 % of control
- T/C (dose: 423.0 mg/kg/injection, schedule: Q01DX009 (ip), vehicle: saline with Tween-80): 98 % of control
- T/C (dose: 632.0 mg/kg/injection, schedule: Q01DX009 (ip), vehicle: Klucel (hydroxypropylcellulose) (HPC)): 100 % of control
- T/C (dose: 632.0 mg/kg/injection, schedule: Q01DX009 (ip), vehicle: saline with Tween-80): 98 % of control
- T/C (dose: 948.0 mg/kg/injection, schedule: Q01DX009 (ip), vehicle: saline with Tween-80): 94 % of control

SMILES: C[N+](C)(C)c1ncnc2nc[nH]c12
- T/C (dose: 11.25 mg/kg/injection, schedule: Q01DX Z (ip), vehicle: saline): 101 % of control
- T/C (dose: 22.5 mg/kg/injection, schedule: Q01DX Z (ip), vehicle: saline): 100 % of control
- T/C (dose: 45.0 mg/kg/injection, schedule: Q01DX Z (ip), vehicle: saline): 102 % of control
- T/C [3]: 105 % of control
- T/C (dose: 90.0 mg/kg/injection, schedule: Q01DX Z (ip), vehicle: saline): 94 % of control
- T/C [4]: 99 % of control

SMILES: Nc1nc(SCc2ccccc2)c2ncn(C3OC(CO)CC3O)c2n1 (stereo not given)
- T/C (dose: 18.75 mg/kg/injection, schedule: Q01DX009 (ip), vehicle: other): 100 % of control
- T/C (dose: 37.5 mg/kg/injection, schedule: Q01DX009 (ip), vehicle: other): 97 % of control
- T/C (dose: 75.0 mg/kg/injection, schedule: Q01DX009 (ip), vehicle: other): 99 % of control
- T/C (dose: 150.0 mg/kg/injection, schedule: Q01DX009 (ip), vehicle: other): 91 % of control

SMILES: Oc1cc(CN(CCCl)CCCl)c(O)cc1CN(CCCl)CCCl
- T/C (dose: 0.5 mg/kg/injection, schedule: Q01DX Z (ip), vehicle: saline): 173 % of control
- T/C (dose: 2.0 mg/kg/injection, schedule: Q01DX Z (ip), vehicle: carboxymethylcellulose (CMC)): 153 % of control and 184 % of control
- T/C [1]: 102 % of control and 108 % of control

SMILES: OCC1OC(n2cnc3c(=S)nc[nH]c32)C(O)C1O (stereo not given)
- T/C (dose: 37.5 mg/kg/injection, schedule: Q01DX Z (ip), vehicle: carboxymethylcellulose (CMC)): 114 % of control
- T/C (dose: 50.0 mg/kg/injection, schedule: Q01DX015 (ip), vehicle: carboxymethylcellulose (CMC)): 93 % of control
- T/C (dose: 75.0 mg/kg/injection, schedule: Q01DX015 (ip), vehicle: carboxymethylcellulose (CMC)): 93 % of control
- T/C (dose: 75.0 mg/kg/injection, schedule: Q01DX Z (ip), vehicle: carboxymethylcellulose (CMC)): 92 % of control
- T/C (dose: 100.0 mg/kg/injection, schedule: Q01DX015 (ip), vehicle: carboxymethylcellulose (CMC)): 94 % of control
- T/C (dose: 112.0 mg/kg/injection, schedule: Q01DX010 (ip), vehicle: carboxymethylcellulose (CMC)): 94 % of control
- T/C (dose: 120.0 mg/kg/injection, schedule: Q01DX001 (ip), vehicle: carboxymethylcellulose (CMC)): 100 % of control
- T/C (dose: 125.0 mg/kg/injection, schedule: Q01DX015 (ip), vehicle: carboxymethylcellulose (CMC)): 90 % of control
- T/C (dose: 150.0 mg/kg/injection, schedule: Q01DX010 (ip), vehicle: carboxymethylcellulose (CMC)): 90 % of control
- T/C (dose: 150.0 mg/kg/injection, schedule: Q01DX015 (ip), vehicle: carboxymethylcellulose (CMC)): 95 % of control
- T/C [5]: 97 % of control
- T/C (dose: 180.0 mg/kg/injection, schedule: Q01DX001 (ip), vehicle: alkali diluted with saline): 110 % of control
- T/C (dose: 180.0 mg/kg/injection, schedule: Q01DX001 (ip), vehicle: carboxymethylcellulose (CMC)): 100 % of control
- T/C (dose: 225.0 mg/kg/injection, schedule: Q01DX010 (ip), vehicle: carboxymethylcellulose (CMC)): 88 % of control
- T/C (dose: 270.0 mg/kg/injection, schedule: Q01DX001 (ip), vehicle: alkali diluted with saline): 103 % of control
- T/C (dose: 270.0 mg/kg/injection, schedule: Q01DX001 (ip), vehicle: carboxymethylcellulose (CMC)): 100 % of control
- T/C (dose: 300.0 mg/kg/injection, schedule: Q01DX010 (ip), vehicle: carboxymethylcellulose (CMC)): 91 % of control
- T/C [6]: 92 % of control
- T/C (dose: 400.0 mg/kg/injection, schedule: Q01DX001 (ip), vehicle: alkali diluted with saline): 99 % of control
- T/C [7]: 96 % of control
- T/C (dose: 600.0 mg/kg/injection, schedule: Q01DX001 (ip), vehicle: alkali diluted with saline): 102 % of control
- T/C (dose: 600.0 mg/kg/injection, schedule: Q01DX001 (ip), vehicle: carboxymethylcellulose (CMC)): 101 % of control
- T/C (dose: 900.0 mg/kg/injection, schedule: Q01DX001 (ip), vehicle: alkali diluted with saline): 100 % of control

SMILES: Clc1ncnc2nc[nH]c12
- T/C (dose: 12.5 mg/kg/injection, schedule: Q01DX Z (ip), vehicle: carboxymethylcellulose (CMC)): 97 % of control
- T/C (dose: 25.0 mg/kg/injection, schedule: Q01DX Z (ip), vehicle: carboxymethylcellulose (CMC)): 93 % of control
- T/C (dose: 50.0 mg/kg/injection, schedule: Q01DX Z (ip), vehicle: carboxymethylcellulose (CMC)): 92 % of control and 104 % of control
- T/C (dose: 100.0 mg/kg/injection, schedule: Q01DX Z (ip), vehicle: carboxymethylcellulose (CMC)): 90 % of control
- T/C (dose: 200.0 mg/kg/injection, schedule: Q01DX001 (ip), vehicle: carboxymethylcellulose (CMC)): 99 % of control and 104 % of control
- T/C (dose: 200.0 mg/kg/injection, schedule: Q01DX Z (ip), vehicle: carboxymethylcellulose (CMC)): 90 % of control
- T/C (dose: 267.0 mg/kg/injection, schedule: Q01DX001 (ip), vehicle: carboxymethylcellulose (CMC)): 102 % of control and 107 % of control
- T/C [6]: 88 % of control
- T/C [7]: 100 % of control and 102 % of control

SMILES: C=CCn1cnc2c(=S)nc[nH]c21
- T/C (dose: 18.0 mg/kg/injection, schedule: Q01DX015 (ip), vehicle: other): 103 % of control
- T/C (dose: 26.0 mg/kg/injection, schedule: Q01DX015 (ip), vehicle: other): 108 % of control
- T/C (dose: 40.0 mg/kg/injection, schedule: Q01DX015 (ip), vehicle: other): 101 % of control
- T/C (dose: 60.0 mg/kg/injection, schedule: Q01DX015 (ip), vehicle: other): 95 % of control

SMILES: CCCSc1nc(N)nc2nc[nH]c12
- T/C [2]: 114 % of control
- T/C (dose: 25.0 mg/kg/injection, schedule: Q01DX Z (ip), vehicle: saline): 106 % of control
- T/C [3]: 107 % of control
- T/C [4]: 103 % of control
- T/C [5]: 91 % of control
